“Also recorded” adds a separate entry of the source. Like-named read-outs stand apart in the source and are kept apart here.
Key:
[1] = target: Butyrylcholine esterase (Rattus norvegicus, UniProt Q9JKC1); conditions: cited from earlier work
[2] = tested on: male SD rat; assay: Acetylcholine inductive salivation in rat (Example 5); assay type: in vivo; conditions: for Amount of saliva secreted: rat
Description: (§1) A male SD rat (CLEA Japan Inc.) with a body weight of about 400 g or a Hartley male guinea pig with a body weight of 400 to 500 g (Japan SLC) were used. After urethane anesthesia, sanitary cotton preliminarily weighed was inserted in the mouth of the animal and acetylcholine was intravenously administrated. After 5 minutes, the sanitary cotton was taken out to be weighed and the amount of saliva secreted was measured. The drug was intravenously administrated at 10 min before the administration of acetylcholine. The effect of oxybutynin was analyzed by paired t calibration and the concomitant use effect of the compound A was analyzed by William calibration.

[3] = tested on: Hartley male guinea pig, urethane anesthesia; assay: Pressure/flow study using guinea pig (Example 3); assay type: in vivo; conditions: for Amount of urination, proportion for value before administration (%) / At maximum urine flow rate Inner pressure of bladder, proportion for value before administration (%) / Maximum urine flow rate, proportion for value before administration (%): i.v.; for Bladder compliance, proportion for value before administration (%) / Bladder volume, proportion for value before administration (%): iv
Description: A Hartley male guinea pig of 5 weeks old (Japan SLC) was used. After urethane anesthesia, the medial incision of the lower abdomen was carried out, and the bladder was exposed. Two injection needles (20G) with which a polyethylene tube (PE-100) was linked were inserted in the bladder, and one needle was used for injection of saline and another needle was used for measurement of the inner pressure of the bladder. The injection of saline was continuously carried out at a rate of 18 mL/h using a syringe pump (SP-100S, JMS, and Hiroshima), the injection was stopped after intermittent urination was confirmed 3 times at minimum, and the saline in the bladder was removed by suction. Injection was started again, and the injection was stopped when the raise of the inner pressure of the bladder just before urination was confirmed. The amount of urine excreted was measured by an electronic weighing machine (HX-400, A&D, and Tokyo) and the inner pressure of the bladder was measured using a pressure transducer (AP641G, NIPPON KODEN Corporation). The analogue data of the weight of urine and the inner pressure of the bladder were inputted in a multi-channel data analyzer (MP-100A-CE, Biopac systems), and analyzed by a proprietary software (Acqknowledge, Biopac systems). The sampling interval of data was 0.1 second and a low pass filter was applied to the data of discharge amount and urine flow rate at 0.5 Hz in order to remove noise. A delay time of 0.1 second in weighing the urine was rectified, and the urine flow rate was determined by differentiating the value of discharge amount. After a value before twice administration of the drug was measured, the drugs (the compound A, distigmine, neostigigmine and bethanechol) were intravenously administrated. Saline in the bladder was extracted after 10 minutes of administration of the compound A, bethanechol and neostigigmine and after 30 minutes of administration of distigmine, and injection was started again to measure data. The drugs were dissolved with distilled water so that administration volume was 0.5 mL/kg. Parameters (bladder volume, the amount of urination, the maximum urine flow rate, the inner pressure of the bladder at the maximum urine flow, bladder compliance) below were measured. The bladder compliance was calculated from intersection point (the threshold of bladder volume, threshold pressure) which was obtained by determining regression line in the respective curves of the inner pressure of the bladder at collection of urine and urinary reflex. The change rate before and after administration of the drug was calculated for the respective parameters and the calibration of significant difference was carried out by a solvent administration group and Dunnett calibration (Table 6 and Table 7).

[4] = tested on: bladder muscle; design: species or system guinea pig
[5] = tested on: Hartley male guinea pig; assay: Acetylcholine inductive salivation in guinea pig (Example 5); assay type: in vivo
Description: as §1

[6] = target: T1, acetylcholine esterase of human erythrocyte origin (Homo sapiens, UniProt P22303); assay: biochemical; assay type: biochemical
T1 construct: acetylcholine esterase of human erythrocyte origin; purchased Sigma, St. Louis, Mo., USA; host or cells: human erythrocytes
Description: (§2) The AChE inhibitory activity and the BuChE inhibitory activity were determined by a thiocholine method (Ellman method) using acetylcholine esterase of human erythrocyte origin (Sigma, St. Louis, Mo., USA) and butyrylcholine esterase of human serum origin (Biogenesis, Poole, UK). Acetylcholine esterase or butyrylcholine esterase was diluted to a concentration of 0.2 IU/mL with 80 mM tris-HCL buffers (pH=7.4) containing 0.3% bovine serum albumin (BSA) to prepare an enzyme preparation. […] The stock solution was diluted at 3-fold common ratio with 10% DMSO and 80 mM tris-HCl buffers containing 0.3% BSA. On a 96 wells microplate, 20 μL of the drug solution with a given concentration, 30 μL of 80 mM tris-HCl buffers containing 0.3% BSA and 50 μL of the enzyme preparation were distributed, and incubated at room temperature for 1 hour after shaking for 10 seconds. […] For the respective drugs, the test was repeated twice. The % of control of the increase in light absorption was calculated at each concentration with respect to the respective drugs. % of control=increase in light absorption of drug/increase in light absorption of control×100

[7] = tested on: Hartley male guinea pig, urethane anesthesia; assay: Urine flow dynamic parameters with oxybutynin and compound A (Example 6); assay type: in vivo; conditions: for Bladder volume, proportion for value before administration (%) / Maximum urine flow rate, proportion for value before administration (%) / Urination efficiency, proportion for value before administration (%): iv + oxybutynin 1 mg/kg, iv
Description: A Hartley male guinea pig with a body weight of about 500 g (Japan SLC Hamamatsu) was used. After urethane anesthesia (1.4 g/kg, i.p.), the medial incision of the lower abdomen was carried out, and the bladder was exposed. Two injection needles (20G) with which a polyethylene tube (PE-100, Becton Dickinson, Franklin Lakes, N.J., USA) was linked were inserted in the bladder, and one needle was used for injection of saline and another needle was used for measurement of the inner pressure of the bladder. Further, a cannula (PE-10, Becton Dickinson) for injection of phenylephrine was inserted in right common jugular vein. […] The amount of urine eliminated was measured by an electronic weighing machine (GX-400, A&D, Tokyo) and the inner pressure of the bladder was measured using a pressure transducer (AP641G, NIPPON KODEN Corporation, Tokyo). The analogue data of the weight of urine and the inner pressure of the bladder were inputted in a multi-channel data analyzer (MP-100A-CE, Biopac systems), and analyzed by a proprietary software (Acqknowledge 3.7.1, Biopac systems). The sampling interval of data was 0.1 sec and a low pass filter was applied to the data of discharge amount and urine flow rate at 0.5 Hz in order to remove noise. A delay time of 0.1 sec in weighing the urine was rectified, and the urine flow rate was determined by differentiating the value of discharge amount. The dynamic state parameter of the flow of urine below was measured. A bladder volume, the maximum urine flow rate, urination efficiency (=amount of urination/bladder volume). The effect of oxybutynin was analyzed by the paired t calibration and the concomitant use effect of the compound A was analyzed by Dunnett calibration.

[8] = target: T2, butyrylcholine esterase of human serum origin (Homo sapiens, UniProt P06276); assay: biochemical; assay type: biochemical
T2 construct: butyrylcholine esterase of human serum origin; purchased Biogenesis, Poole, UK; host or cells: human serum
T2 sequence (P06276 29-602): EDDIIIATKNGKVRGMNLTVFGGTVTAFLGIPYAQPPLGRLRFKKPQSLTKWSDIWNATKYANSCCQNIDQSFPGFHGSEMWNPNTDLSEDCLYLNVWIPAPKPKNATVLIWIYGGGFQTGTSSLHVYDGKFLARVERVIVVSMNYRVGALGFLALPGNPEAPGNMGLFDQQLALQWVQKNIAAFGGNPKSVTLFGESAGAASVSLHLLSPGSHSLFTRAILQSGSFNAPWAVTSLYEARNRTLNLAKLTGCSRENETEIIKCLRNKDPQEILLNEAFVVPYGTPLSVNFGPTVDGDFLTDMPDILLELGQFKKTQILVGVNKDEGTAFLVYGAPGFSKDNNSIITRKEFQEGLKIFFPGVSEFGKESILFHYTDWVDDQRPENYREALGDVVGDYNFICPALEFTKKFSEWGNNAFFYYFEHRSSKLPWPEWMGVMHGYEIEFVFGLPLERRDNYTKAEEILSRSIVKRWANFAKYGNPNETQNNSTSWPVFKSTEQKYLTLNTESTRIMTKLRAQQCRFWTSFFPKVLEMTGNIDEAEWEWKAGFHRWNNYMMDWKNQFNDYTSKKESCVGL
Description: as §2

T1 sequence (P22303 32-617 isoform P22303-2 limits assumed): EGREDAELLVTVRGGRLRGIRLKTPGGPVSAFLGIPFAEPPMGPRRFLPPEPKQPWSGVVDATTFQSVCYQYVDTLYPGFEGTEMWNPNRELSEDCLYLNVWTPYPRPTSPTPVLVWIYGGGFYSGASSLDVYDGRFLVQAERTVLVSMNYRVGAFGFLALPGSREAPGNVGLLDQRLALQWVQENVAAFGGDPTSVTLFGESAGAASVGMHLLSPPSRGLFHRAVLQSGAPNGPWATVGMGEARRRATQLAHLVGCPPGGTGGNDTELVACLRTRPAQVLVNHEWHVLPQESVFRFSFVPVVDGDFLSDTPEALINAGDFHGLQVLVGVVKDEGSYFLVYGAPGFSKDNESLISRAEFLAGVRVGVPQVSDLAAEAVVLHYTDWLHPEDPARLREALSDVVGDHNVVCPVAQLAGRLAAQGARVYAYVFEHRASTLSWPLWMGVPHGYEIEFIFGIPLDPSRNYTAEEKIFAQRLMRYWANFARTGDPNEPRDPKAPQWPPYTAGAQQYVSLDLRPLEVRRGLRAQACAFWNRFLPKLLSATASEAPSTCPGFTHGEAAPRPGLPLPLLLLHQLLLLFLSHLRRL
Butyrylcholine esterase, sequence (Q9JKC1 24-597): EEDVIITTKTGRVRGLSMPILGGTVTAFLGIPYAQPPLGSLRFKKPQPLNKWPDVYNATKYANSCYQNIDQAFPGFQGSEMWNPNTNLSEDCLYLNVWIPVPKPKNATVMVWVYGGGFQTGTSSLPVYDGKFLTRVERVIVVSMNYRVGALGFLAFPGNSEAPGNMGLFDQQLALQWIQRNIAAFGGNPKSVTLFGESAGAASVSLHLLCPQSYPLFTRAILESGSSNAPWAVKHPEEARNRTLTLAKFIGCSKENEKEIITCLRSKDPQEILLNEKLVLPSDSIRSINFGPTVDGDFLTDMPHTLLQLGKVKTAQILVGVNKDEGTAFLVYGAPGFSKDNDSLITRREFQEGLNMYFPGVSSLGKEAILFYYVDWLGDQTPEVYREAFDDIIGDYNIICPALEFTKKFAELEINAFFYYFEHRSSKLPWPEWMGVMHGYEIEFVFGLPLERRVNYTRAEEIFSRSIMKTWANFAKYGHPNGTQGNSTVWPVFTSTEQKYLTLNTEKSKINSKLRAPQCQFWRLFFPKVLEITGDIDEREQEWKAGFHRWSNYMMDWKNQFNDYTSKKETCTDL

CNC(=O)Oc1ccc2c(c1)[C@]1(C)CCN(C)[C@@H]1N2C [Physostigmine]
IC50 ([1]; Literature 4, read-out: Butyrylcholine esterase inhibitory activity (IC50)): 16 nM | IC50 ([1]; Literature 6, read-out: Butyrylcholine esterase inhibitory activity (IC50)): 15 nM

O=C(CCC1CCN(Cc2cccc(F)c2)CC1)c1cc2c3c(c1)CCN3C(=O)CC2 [Compound A, 8-[3-[1-[(3-fluorophenyl)methyl]-4-piperidinyl]-1-oxopropyl]-1,2,5,6-tetrahydro-4H-pyrrolo[3,2,1-ij]quinolin-4-one]
action on acetylcholine-induced secretion of saliva ([2]; rat and guinea pig (Tables 9 and 10)): significantly antagonized | Amount of saliva secreted ([2]; Compound A 0.001 mg/kg + oxybutynin 0.1 mg/kg + acetylcholine 1 mg/kg): 0.22 ± 0.02 g | Amount of saliva secreted ([2]; Compound A 0.003 mg/kg + oxybutynin 0.1 mg/kg + acetylcholine 1 mg/kg): 0.26 ± 0.02 g | Amount of saliva secreted ([2]; Compound A 0.01 mg/kg + oxybutynin 0.1 mg/kg + acetylcholine 1 mg/kg): 0.49 ± 0.03 g | Amount of urination, proportion for value before administration (%) ([3]; 0.003 mg/kg): 150.2 ± 10.0 % | At maximum urine flow rate Inner pressure of bladder, proportion for value before administration (%) ([3]; 0.003 mg/kg): 117.5 ± 6.2% | Maximum urine flow rate, proportion for value before administration (%) ([3]; 0.003 mg/kg): 112.1 ± 9.7 % | Bladder compliance, proportion for value before administration (%) ([3]; 0.003 mg/kg): 75.2 ± 4.8% | Bladder volume, proportion for value before administration (%) ([3]; 0.003 mg/kg): 94.6 ± 5.8% | Amount of urination, proportion for value before administration (%) ([3]; 0.01 mg/kg): 165.2 ± 18.2 % | At maximum urine flow rate Inner pressure of bladder, proportion for value before administration (%) ([3]; 0.01 mg/kg): 110.9 ± 6.0% | Maximum urine flow rate, proportion for value before administration (%) ([3]; 0.01 mg/kg): 124.4 ± 10.3 % | Bladder compliance, proportion for value before administration (%) ([3]; 0.01 mg/kg): 82.6 ± 2.6% | Bladder volume, proportion for value before administration (%) ([3]; 0.01 mg/kg): 101.7 ± 5.0% | Amount of urination, proportion for value before administration (%) ([3]; 0.03 mg/kg): 164.0 ± 13.4 % | At maximum urine flow rate Inner pressure of bladder, proportion for value before administration (%) ([3]; 0.03 mg/kg): 116.9 ± 8.4% | Maximum urine flow rate, proportion for value before administration (%) ([3]; 0.03 mg/kg): 133.5 ± 15.3 % | Bladder compliance, proportion for value before administration (%) ([3]; 0.03 mg/kg): 95.9 ± 18.0% | Bladder volume, proportion for value before administration (%) ([3]; 0.03 mg/kg): 117.2 ± 9.0 % | change of the parameters at urination and at collection of urine (text) ([3]; intravenous administration): increased significantly the amount of urination and the maximum urine flow rate at 0.003 mg/kg or more; also recorded: the increase of the bladder volume was confirmed at 0.03 mg/kg, and did not influence the bladder compliance | Tension (%) ([4]; 0.003 μM, 30 minutes, change of basic tension, 100 mM KCl contraction = 100%): −0.55 ± 0.60% | Tension (%) ([4]; 0.01 μM, 30 minutes, change of basic tension, 100 mM KCl contraction = 100%): −0.26 ± 0.38% | Tension (%) ([4]; 0.03 μM, 30 minutes, change of basic tension, 100 mM KCl contraction = 100%): 0.13 ± 0.80% | Tension (%) ([4]; 0.1 μM, 30 minutes, change of basic tension, 100 mM KCl contraction = 100%): −0.74 ± 0.60% | Tension (%) ([4]; Table 5: Compound A 0.1 μM with iso-OMPA 10 μM): 1.96 ± 0.87 % | Tension (%) ([4]; Table 5: Compound A 0.1 μM with iso-OMPA 100 μM): 5.43 ± 1.17 % | Tension (%) ([4]; Table 5: Compound A 0.1 μM, iso-OMPA 0 μM): −0.47 ± 0.17% | effect on basic tension ([4]; compound A used in combination with iso-OMPA): significant increase in the basic tension was confirmed | effect on basic tension ([4]; drug alone): did not influence the basic tension | Amount of saliva secreted ([5]; Compound A 0.003 mg/kg + oxybutynin 1 mg/kg + acetylcholine 1 mg/kg): 0.17 ± 0.03 g | Amount of saliva secreted ([5]; Compound A 0.010 mg/kg + oxybutynin 1 mg/kg + acetylcholine 1 mg/kg): 0.27 ± 0.02 g | Acetylcholine esterase selective inhibitory activity [6]: ≥ 6700 fold | inhibition of the activity of human acetylcholine esterase [6]: inhibited the activity of human acetylcholine esterase | Selectivity b/a ([6]; BuChE IC50/AChE IC50 (Table 2)): >6700 | IC50 ([6]; mean value of twice tests, read-out: Acetylcholine esterase IC50): 1.5 nM | Bladder volume, proportion for value before administration (%) ([7]; Compound A 0.003 mg/kg): 21.07 ± 4.65% | Maximum urine flow rate, proportion for value before administration (%) ([7]; Compound A 0.003 mg/kg): −34.88 ± 8.22% | Urination efficiency, proportion for value before administration (%) ([7]; Compound A 0.003 mg/kg): −61.67 ± 7.22% | Bladder volume, proportion for value before administration (%) ([7]; Compound A 0.01 mg/kg): 24.73 ± 7.05% | Maximum urine flow rate, proportion for value before administration (%) ([7]; Compound A 0.01 mg/kg): −9.04 ± 5.94 % | Urination efficiency, proportion for value before administration (%) ([7]; Compound A 0.01 mg/kg): −30.23 ± 10.48 % | action on bladder volume, maximum urine flow rate and urination efficiency ([7]; oxybutynin 1 mg/kg, compound A 0.003, 0.01 mg/kg with oxybutynin): acted antagonistically against the lowering of the maximum urine flow rate and urination efficiency but did not influence the increase of bladder volume | inhibitory activity for human butyrylcholine esterase [8]: did not show inhibitory activity for human butyrylcholine esterase up to 10^−5 M | IC50 ([8]; mean value of twice tests, read-out: Butyrylcholine esterase IC50): > 10000 nM

— patent US20070021391A1, “Preventive/remedy for urinary disturbance” (priority 2003, published 2007)
